Legend:
Kuramochi cells = assay: BrdU Cell Proliferation Assay; type: cell-based; details: read-out: BrdU - KURAMOCHI.1: IC50
Procedure, shortened: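 Kuramochi cells were seeded at 2,000 cells/well, adhered overnight, then treated with a 10-point, 3-fold compound dilution series for 4 days. Proliferation was measured by a 1-hour BrdU pulse, anti-BrdU peroxidase colorimetric ELISA and 450 nm absorbance. Values were background-subtracted and normalized to DMSO wells.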

[1] = tested on: Kuramochi cells labeled with mApple-H2B; assay: IncuCyte Cell Proliferation Assay; type: cell-based; details: 72 h
Procedure, shortened: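 Cells imaged at 0 and 72 h after compound treatment (10 points, ½ log dilution, 20 μM top), with fluorescent nuclei counted. Fold change in count was normalized to DMSO wells and fitted to dose-response curves to give GI50.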

Row | Structure (SMILES) | IC50 (Kuramochi cells) [µM] | IC50 [1] [µM]
1 | CNC(=O)[C@@H](NC(=O)[C@H]1CN(C(=O)c2scnc2C2CCCC2)CC12CN(C(=O)[C@H]1CC1(C)C)C2)[C@@H](C)OCC1CCCCC1 [I-224A] | > 10 | > 20
2 | COC[C@H]1CCCN(C(=O)[C@@H](NC(=O)[C@@H]2CN(C(=O)c3cncs3)CC23CN(C(=O)C(C)(C)C2CC2)C3)[C@@H](C)OC(C)C2CCC(F)(F)CC2)C1 (stereo partly shown) [I-399] | 0.5 to 5 | 0.5 to 5
3 | C[C@@H](OCC1CCOCC1)[C@@H](COC(F)(F)F)NC(=O)[C@@H]1CN(C(=O)c2cncs2)CC12CN(C(=O)[C@H]1CC1(C)C)C2 [I-428] | > 10 | > 20
4 | CNC(=O)[C@@H](NC(=O)[C@H]1CN(C(=O)c2cnc(COC(C)(C)C)s2)CC12CN(C(=O)[C@H]1CC1(C)C)C2)[C@@H](C)OCC1CCCCC1 [I-175B] | > 10 | 5 to 20
5 | CNC(=O)[C@@H](NC(=O)[C@@H]1CN(C(=O)c2cnn(Cc3ccc(F)cc3)c2)CC12CN(C(=O)[C@H]1CC1(C)C)C2)[C@@H](C)OCc1ccc(F)cc1 [I-136A] | 0.5 to 5 | 5 to 20
6 | CO[C@H]1COCC[C@H]1NC(=O)[C@@H]1CN(C(=O)c2cnn(Cc3ccccc3)c2)CC12CN(C(=O)[C@H]1CC1(C)C)C2 [I-134A] | > 10 | > 20
7 | CNC(=O)[C@@H](NC(=O)[C@@H]1CN(C(=O)c2cnn(Cc3ccccc3)c2)CC12CN(C(=O)[C@H]1CC1(C)C)C2)[C@@H](C)OCCC1CCCCC1 [I-125A] | ≤ 0.5 | ≤ 0.5
8 | CNC(=O)[C@@H](NC(=O)[C@@H]1CN(C(=O)c2cnc(Cl)s2)CC12CN(C(=O)[C@H]1CC1(C)C)C2)[C@@H](C)OCC1CCCCC1 [I-189A] | > 10 | 5 to 20
9 | CNC(=O)[C@@H](NC(=O)[C@@H]1CN(C(=O)c2nncs2)CC12CN(C(=O)[C@H]1CC1(C)C)C2)[C@@H](C)OCC1CCCCC1 [I-246] | 0.5 to 5 | 5 to 20
10 | CNC(=O)[C@@H](NC(=O)[C@@H]1CN(C(=O)c2cnn(Cc3ccccc3)c2)CC12CN(C(=O)N(C)C1CC1)C2)[C@@H](C)OCC1CCCCC1 [I-295] | 5 to 10 | 5 to 20
11 | CNC(=O)[C@@H](NC(=O)[C@@H]1CN(C(=O)c2cnn(Cc3ccccc3)c2)CC12CN(C(=O)[C@H]1CC1(C)C)C2)[C@@H](C)OCC1CCC(C)(C)CC1 [I-372] | ≤ 0.5 | ≤ 0.5
12 | COC[C@H]1CCCN(C(=O)[C@@H](NC(=O)C2CN(C(=O)c3cncs3)CC23CN(C(=O)[C@H]2CC2(C)C)C3)[C@@H](C)OCC2CCCCC2)C1 (stereo partly shown) [I-196 mixture] | ≤ 0.5 | 0.5 to 5
13 | C[C@@H](OCC1CCC(F)(F)CC1)[C@H](NC(=O)[C@@H]1CN(C(=O)c2cncs2)CC12CN(C(=O)[C@H]1CC1(C)C)C2)C(=O)N1CCC(O)CC1 [I-383] | 5 to 10 | 0.5 to 5
14 | C[C@@H](OCC1CCC(F)(F)CC1)[C@H](NC(=O)[C@@H]1CN(C(=O)c2cncs2)CC12CN(C(=O)[C@H]1CC1(C)C)C2)C(=O)N1CCC[C@H](COC(F)(F)F)C1 [I-326] | ≤ 0.5 | ≤ 0.5
15 | CNC(=O)[C@@H](NC(=O)[C@@H]1CN(C(=O)c2cnn(Cc3ccccc3)c2)CC12CN(C(=O)[C@H]1CC1(C)C)C2)[C@@H](C)OCC(C)C [I-137A] | > 10 | > 20
16 | Cc1ccc2[nH]c(CNC(=O)C3CN(C(=O)c4cnn(Cc5ccccc5)c4)CC34CN(C(=O)[C@H]3CC3(C)C)C4)nc2c1 (stereo partly shown) [I-278] | > 10 | > 20
17 | Cc1ccc(CNC(=O)[C@@H]2CN(C(=O)c3cnn(Cc4ccccc4)c3)CC23CN(C(=O)[C@H]2CC2(C)C)C3)nn1 [I-252] | 5 to 10 | 5 to 20
18 | COC[C@H]1CCCN(C(=O)[C@H](C)NC(=O)[C@@H]2CN(C(=O)c3cncs3)CC23CN(C(=O)[C@H]2CC2(C)C)C3)C1 [I-325] | > 10 | > 20
19 | CC1(C)C[C@@H]1C(=O)N1CC2(CN(C(=O)c3cnn(Cc4ccccc4)c3)C[C@@H]2C(=O)NCc2nnc[nH]2)C1 [I-191B] | > 10 | > 20
20 | CNC(=O)[C@@H](NC(=O)[C@@H]1CN(C(=O)c2cnn(Cc3ccccc3)c2)CC12CN(C(=O)[C@H]1CC1(C)C)C2)[C@@H](C)OCC(C)(C)C [I-130A] | 5 to 10 | 5 to 20
21 | CNC(=O)[C@@H](NC(=O)[C@@H]1CN(C(=O)c2cncs2)CC12CN(C(=O)[C@H]1CC1(C)C)C2)C1(OCc2ccccc2)CC1 [I-375] | > 10 | > 20
22 | CNC(=O)[C@@H](NC(=O)[C@@H]1CN(C(=O)c2cncs2)CC12CN(C(=O)[C@H]1CC1(C)C)C2)[C@@H](C)OCC12CCC(CC1)OC2 [I-342] | 0.5 to 5 | 0.5 to 5

Row | Structure (SMILES) | IC50 (Kuramochi cells) [µM] | IC50 [1] [µM]
23 | C[C@@H](OCC1CCCCC1)[C@H](NC(=O)[C@@H]1CN(C(=O)c2cn[nH]c2)CC12CN(C(=O)[C@H]1CC1(C)C)C2)C(=O)N1CCC(F)(F)CC1 [I-154A] | 0.5 to 5 | 0.5 to 5
24 | COC[C@@H]1CCCN(C(=O)[C@@H](NC(=O)C2CN(C(=O)c3cncs3)CC23CN(C(=O)[C@H]2CC2(C)C)C3)[C@@H](C)OCC2CCCCC2)C1 (stereo partly shown) [I-195] | ≤ 0.5 | ≤ 0.5
25 | COC[C@H]1CCCN(C(=O)[C@@H](NC(=O)[C@@H]2CN(C(=O)c3cncs3)CC23CN(C(=O)[C@H]2CC2(C)C)C3)[C@@H](C)OC(C)C2CCC(F)(F)CC2)C1 (stereo partly shown) [I-360] | 0.5 to 5 | 0.5 to 5
26 | C[C@@H](OCC1CCCCC1)[C@@H](COC1CCC(F)(F)CC1)NC(=O)[C@@H]1CN(C(=O)c2cnn(Cc3ccccc3)c2)CC12CN(C(=O)[C@H]1CC1(C)C)C2 [I-271] | ≤ 0.5 | ≤ 0.5
27 | CC(O[C@H](C)[C@H](NC(=O)[C@@H]1CN(C(=O)c2cncs2)CC12CN(C(=O)[C@H]1CC1(C)C)C2)C(=O)N1CCC(F)(F)CC1)C1CCC(F)(F)CC1 (stereo partly shown) [I-361] | 0.5 to 5 | 0.5 to 5
28 | CNC(=O)[C@@H](NC(=O)[C@@H]1CN(C(=O)c2sc(C(C)C)nc2C)CC12CN(C(=O)[C@H]1CC1(C)C)C2)[C@@H](C)OCC1CCCCC1 [I-227A] | > 10 | > 20
29 | CNC(=O)[C@@H](NC(=O)[C@@H]1CN(C(=O)c2sc(Cl)nc2C)CC12CN(C(=O)[C@H]1CC1(C)C)C2)[C@@H](C)OCC1CCCCC1 [I-208A] | ≤ 0.5 | ≤ 0.5
30 | CNC(=O)[C@@H](NC(=O)[C@@H]1CN(C(=O)c2cnn(Cc3ccccc3)c2)CC12CN(C(=O)NC1CC1)C2)[C@@H](C)OCC1CCCCC1 [I-268, (S)-6-(1-benzyl-1H-pyrazole-4-carbonyl)-N8-((2S,3R)-3-(cyclohexylmethoxy)-1-(methylamino)-1-oxobutan-2-yl)-N2-cyclopropyl-2,6-diazaspiro[3.4]octane-2,8-dicarboxamide] | > 10 | > 20
31 | CNC(=O)C(NC(=O)[C@@H]1CN(C(=O)c2cncs2)CC12CN(C(=O)[C@H]1CC1(C)C)C2)c1ncc(C2CCCCC2)o1 (stereo partly shown) [I-426] | > 10 | > 20
32 | C[C@@H]1C[C@H](C)CN(C(=O)[C@@H](NC(=O)C2CN(C(=O)c3cnn(Cc4ccccc4)c3)CC23CN(C(=O)[C@H]2CC2(C)C)C3)[C@@H](C)OCC2CCCCC2)C1 (stereo partly shown) [I-104] | ≤ 0.5 | 0.5 to 5
33 | CNC(=O)[C@@H](NC(=O)[C@@H]1CN(C(=O)c2cncs2)CC12CN(C(=O)[C@H]1CC1(C)C)C2)[C@@H](C)OCC12CCC(CC1)CC2 [I-289] | ≤ 0.5 | ≤ 0.5
34 | CNC(=O)[C@H](CO)NC(=O)C1CN(C(=O)c2cnn(Cc3ccccc3)c2)CC12CN(C(=O)[C@H]1CC1(C)C)C2 (stereo partly shown) [I-260] | > 10 | > 20
35 | CC1(C)C[C@@H]1C(=O)N1CC2(CN(C(=O)c3cnn(Cc4ccccc4)c3)C[C@H]2C(=O)NCc2ccc(Cl)nn2)C1 [I-376] | > 10 | > 20
36 | CC1(C)C[C@@H]1C(=O)N1CC2(CN(C(=O)c3cncs3)C[C@H]2C(=O)N[C@@H](COCC2CCCCC2)C(=O)N2CCCCC2)C1 [I-286] | 0.5 to 5 | 0.5 to 5
37 | C[C@@H](OCC1CCCCC1)[C@H](NC(=O)[C@@H]1CN(C(=O)c2cncs2)CC12CN(C(=O)[C@H]1CC1(F)F)C2)C(=O)N1CCCCC1 [I-296] | 0.5 to 5 | 0.5 to 5
38 | CNC(=O)[C@@H](NC(=O)[C@@H]1CN(C(=O)c2cnn(Cc3ccccc3)c2)CC12CN(C(=O)[C@H]1CC1(C)C)C2)[C@@H](C)NCC1CCCCC1 [I-269, (S)-6-(1-benzyl-1H-pyrazole-4-carbonyl)-N-((2S,3R)-3-((cyclohexylmethyl)amino)-1-(methylamino)-1-oxobutan-2-yl)-2-((S)-2,2-dimethylcyclopropane-1-carbonyl)-2,6-diazaspiro[3.4]octane-8-carboxamide] | > 10 | 5 to 20
39 | C[C@@H](OCC1CCCCC1)[C@H](NC(=O)[C@@H]1CN(C(=O)c2cnn(Cc3ccccc3)c2)CC12CN(C(=O)[C@H]1CC1(C)C)C2)C(C)(C)O [I-281] | 0.5 to 5 | ≤ 0.5
40 | C[C@@H](OCC1CCCCC1)[C@H](NC(=O)[C@@H]1CN(C(=O)c2cn[nH]c2)CC12CN(C(=O)[C@H]1CC1(C)C)C2)C(=O)N1CCCCC1 [I-151A] | 0.5 to 5 | 0.5 to 5
41 | CNC(=O)[C@@H](NC(=O)[C@@H]1CN(C(=O)c2cncs2)CC12CN(C(=O)[C@H]1CC1(C)C)C2)[C@@H](C)OCC1CC2CCC1C2 (stereo partly shown) [I-465] | 0.5 to 5 | ≤ 0.5
42 | C[C@@H](OCc1ccccc1)[C@H](NC(=O)[C@@H]1CN(C(=O)c2cnn(Cc3ccccc3)c2)CC12CN(C(=O)[C@H]1CC1(C)C)C2)C(N)=O [I-176A] | > 10 | > 20
43 | C[C@@H](OCC1CCCCC1)[C@H](NC(=O)[C@@H]1CN(C(=O)c2cnn(CC(F)(F)F)c2)CC12CN(C(=O)[C@H]1CC1(C)C)C2)C(=O)N1CCCCC1 [I-132] | 0.5 to 5 | 0.5 to 5
44 | CNC(=O)[C@@H](NC(=O)[C@@H]1CN(Cc2cncs2)CC12CN(C(=O)[C@H]1CC1(C)C)C2)[C@@H](C)OCc1ccccc1 [I-51A] | 5 to 10 | 5 to 20

— patent publication US12065445B2, “CDK2 inhibitors and methods of using the same” (Cedilla Therapeutics, Inc., priority 2021, dated 2024)
